According to US20240148709A1, “METHODS OF TREATING EYE PAIN AND EYE DISORDERS” (Aisa Pharma, Inc., priority 2022, published 2024):

Tested on: participants with SSc-RP
Test: Scleroderma Health Assessment Questionnaire (SHAQ), Phase 2a study Part A
Assay type: in vivo, human
Procedure: Part A—double-blind, placebo-controlled, parallel-group, dose selection, will assess the safety and efficacy of two doses of cilnidipine (10 mg and 20 mg), alone and in combination with tadalafil. A total of 36 participants will be randomized to one of six prespecified treatment arms. Refer to FIG. 1 for treatment arms in Part A of the study. Dosing last for 12 (±2) days in which participants will self-administer daily doses of assigned treatment in the morning. Each participant will take one capsule and one tablet to blind the active therapy being received.
The standard, validated, patient reported outcome measures tool for SSc patients, the SHAQ, will be collected at the time points specified in the study schedules (FIG. 2 and FIGS. 3A and 3B) to assess the participant's quality of life. The SHAQ includes a Raynaud's VAS that will also be reported separately.
Results: Patients in the study were administered the Scleroderma Health Assessment Questionnaire (SHAQ) at the time of study entry and during clinic visits following the treatment period. The study is a two-part, parallel arm design, prospective, double-blind, randomized study conducted in Australia (Flinders Medical Center). 27 patients were randomized into the first phase of the study, following which a DSMB meeting was held, which reviewed data on the primary study endpoint and key Raynaud's secondary endpoints. Data on the SHAQ was not available for the DSMB to review. The mITT population, in which any data was available post treatment was 24 patients was the analysis population for this first part of the study. The second part (i.e., part B) of the study will randomize 36 patients in a double blind, randomized, prospective, placebo controlled, crossover study. In the first part (i.e., Part A) of the study for which data is presented, patients were randomized into 6 groups, cilnidipine at two doses (10 and 20 mg) alone and in combination with tadalafil 5 mg, tadalafil 5 mg alone, and placebo. […] The DSMB recommended that the study proceed into its double blind prospective cross overpowered second phase and compare cilnidipine 20 mg alone to placebo.

[1] = cilnidipine 10 mg and/or tadalafil 5 mg arms
[2] = cilnidipine 20 mg arms (alone or + tadalafil 5 mg)

COCCOC(=O)C1=C(C)NC(C)=C(C(=O)OC/C=C/c2ccccc2)C1c1cccc([N+](=O)[O-])c1 (stereo not shown) [Cilnidipine, cilnidipine]
SHAQ Visual Analog Scale-Raynaud's, In Clinic Visit (Day 12), Mean (SD) [1]: 1.925 (1.9207)
SHAQ Visual Analog Scale-Raynaud's, In Clinic Visit (Day 12), Median [1]: 1.700
SHAQ Visual Analog Scale-Raynaud's, In Clinic Visit (Day 12), Min [1]: 0.00
SHAQ Visual Analog Scale-Raynaud's, In Clinic Visit (Day 12), Q1 [1]: 0.400
SHAQ Visual Analog Scale-Raynaud's, In Clinic Visit (Day 12), Q3 [1]: 3.450
SHAQ Visual Analog Scale-Raynaud's, Percent Change from Baseline, Max [1]: 136.4%
SHAQ Visual Analog Scale-Raynaud's, Percent Change from Baseline, Mean (SD) [1]: 11.36 (118.770) %
SHAQ Visual Analog Scale-Raynaud's, Percent Change from Baseline, Median [1]: −2.27%
SHAQ Visual Analog Scale-Raynaud's, Percent Change from Baseline, Min [1]: −100.0%
SHAQ Visual Analog Scale-Raynaud's, Percent Change from Baseline, Q1 [1]: −100.00%
SHAQ alternative disability index, Change from Baseline, Max [1]: 0.38
SHAQ alternative disability index, Change from Baseline, Mean (SD) [1]: 0.063 (0.2165)
SHAQ alternative disability index, Change from Baseline, Median [1]: 0.000
SHAQ alternative disability index, Change from Baseline, Min [1]: −0.13
SHAQ alternative disability index, Change from Baseline, Q1 [1]: −0.063
SHAQ alternative disability index, Change from Baseline, Q3 [1]: 0.188
SHAQ alternative disability index, In Clinic Visit (Day 12), Max [1]: 1.25
SHAQ alternative disability index, In Clinic Visit (Day 12), Mean (SD) [1]: 0.563 (0.6575)
SHAQ alternative disability index, In Clinic Visit (Day 12), Median [1]: 0.500
SHAQ alternative disability index, In Clinic Visit (Day 12), Min [1]: 0.00
SHAQ alternative disability index, In Clinic Visit (Day 12), Q1 [1]: 0.000
SHAQ alternative disability index, In Clinic Visit (Day 12), Q3 [1]: 1.125
SHAQ alternative disability index, Percent Change from Baseline, Max [1]: 42.9%
SHAQ alternative disability index, Percent Change from Baseline, Mean (SD) [1]: 15.87 (38.161) %
SHAQ alternative disability index, Percent Change from Baseline, Median [1]: 15.87%
SHAQ alternative disability index, Percent Change from Baseline, Min [1]: −11.1%
SHAQ alternative disability index, Percent Change from Baseline, Q1 [1]: −11.11%
SHAQ alternative disability index, Percent Change from Baseline, Q3 [1]: 42.86%
SHAQ Finger Ulcers, Change from Baseline, Max [2]: 0.40
SHAQ Finger Ulcers, Change from Baseline, Mean (SD) [2]: −0.933 (1.9732)
SHAQ Finger Ulcers, Change from Baseline, Median [2]: 0.000
SHAQ Finger Ulcers, Change from Baseline, Min [2]: −3.20
SHAQ Finger Ulcers, Change from Baseline, Q1 [2]: −3.200
SHAQ Finger Ulcers, Change from Baseline, Q3 [2]: 0.400
SHAQ Finger Ulcers, In Clinic Visit (Day 12), Max [2]: 1.90
SHAQ Finger Ulcers, In Clinic Visit (Day 12), Mean (SD) [2]: 0.867 (0.9609)
SHAQ Finger Ulcers, In Clinic Visit (Day 12), Median [2]: 0.700
SHAQ Finger Ulcers, In Clinic Visit (Day 12), Min [2]: 0.00
SHAQ Finger Ulcers, In Clinic Visit (Day 12), Q1 [2]: 0.000
SHAQ Finger Ulcers, In Clinic Visit (Day 12), Q3 [2]: 1.900
SHAQ Finger Ulcers, Percent Change from Baseline, Max [2]: 133.3%
SHAQ Finger Ulcers, Percent Change from Baseline, Mean (SD) [2]: 35.29 (138.648) %
SHAQ Finger Ulcers, Percent Change from Baseline, Median [2]: 35.29%
SHAQ Finger Ulcers, Percent Change from Baseline, Min [2]: −62.7%
SHAQ Finger Ulcers, Percent Change from Baseline, Q1 [2]: −62.75%
SHAQ Finger Ulcers, Percent Change from Baseline, Q3 [2]: 133.33%
SHAQ Overall Change in Severity, Change from Baseline, Max [2]: −1.50
SHAQ Overall Change in Severity, Change from Baseline, Median [2]: −1.600
SHAQ Overall Change in Severity, Change from Baseline, Min [2]: −1.80
SHAQ Overall Change in Severity, Change from Baseline, Q1 [2]: −1.800
SHAQ Overall Change in Severity, Change from Baseline, Q3 [2]: −1.500
SHAQ Overall Change in Severity, In Clinic Visit (Day 12), Max [2]: 1.40
SHAQ Overall Change in Severity, In Clinic Visit (Day 12), Mean (SD) [2]: 1.033 (0.4726)
SHAQ Overall Change in Severity, In Clinic Visit (Day 12), Median [2]: 1.200
SHAQ Overall Change in Severity, In Clinic Visit (Day 12), Min [2]: 0.50
SHAQ Overall Change in Severity, In Clinic Visit (Day 12), Q1 [2]: 0.500
SHAQ Overall Change in Severity, In Clinic Visit (Day 12), Q3 [2]: 1.400
SHAQ Overall Change in Severity, Percent Change from Baseline, Max [2]: −51.7%
SHAQ Overall Change in Severity, Percent Change from Baseline, Mean (SD) [2]: −62.64 (12.445) %
SHAQ Overall Change in Severity, Percent Change from Baseline, Median [2]: −60.00%
SHAQ Overall Change in Severity, Percent Change from Baseline, Min [2]: −76.2%
SHAQ Overall Change in Severity, Percent Change from Baseline, Q1 [2]: −76.19%
SHAQ Overall Change in Severity, Percent Change from Baseline, Q3 [2]: −51.72%
SHAQ Standard disability index, Change from Baseline, Max [2]: 0.00
SHAQ Standard disability index, Change from Baseline, Mean (SD) [2]: −0.125 (0.1250)
SHAQ Standard disability index, Change from Baseline, Median [2]: −0.125
SHAQ Standard disability index, Change from Baseline, Min [2]: −0.25
SHAQ Standard disability index, Change from Baseline, Q1 [2]: −0.250
SHAQ Standard disability index, Change from Baseline, Q3 [2]: 0.000
SHAQ Standard disability index, In Clinic Visit (Day 12), Max [2]: 0.25
SHAQ Standard disability index, In Clinic Visit (Day 12), Mean (SD) [2]: 0.125 (0.1250)
SHAQ Standard disability index, In Clinic Visit (Day 12), Median [2]: 0.125
SHAQ Standard disability index, In Clinic Visit (Day 12), Min [2]: 0.00
SHAQ Standard disability index, In Clinic Visit (Day 12), Q1 [2]: 0.000
SHAQ Standard disability index, In Clinic Visit (Day 12), Q3 [2]: 0.250
SHAQ Standard disability index, Percent Change from Baseline, Max [2]: −33.3%
SHAQ Standard disability index, Percent Change from Baseline, Mean (SD) [2]: −50.00 (23.570) %
SHAQ Standard disability index, Percent Change from Baseline, Median [2]: −50.00%
SHAQ Standard disability index, Percent Change from Baseline, Min [2]: −66.7%
SHAQ Standard disability index, Percent Change from Baseline, Q1 [2]: −66.67%
SHAQ Standard disability index, Percent Change from Baseline, Q3 [2]: −33.33%
SHAQ Visual Analog Scale-Breathing Problems, Change from Baseline, Max [2]: 0.30
SHAQ Visual Analog Scale-Breathing Problems, Change from Baseline, Median [2]: −0.800
SHAQ Visual Analog Scale-Breathing Problems, Change from Baseline, Min [2]: −2.00
SHAQ Visual Analog Scale-Breathing Problems, Change from Baseline, Q1 [2]: −2.000
